Data on 34 compounds can be found in patent US20220144838A1, “Compounds as Inhibitors of Macrophage Migration Inhibitory Factor” (NANJING IMMUNOPHAGE BIOTECH CO., LTD., priority 2019, published 2022).

For the first test, the target named is T1, MIF (Homo sapiens, UniProt P14174).
T1 sequence (P14174 2-115 limits assumed): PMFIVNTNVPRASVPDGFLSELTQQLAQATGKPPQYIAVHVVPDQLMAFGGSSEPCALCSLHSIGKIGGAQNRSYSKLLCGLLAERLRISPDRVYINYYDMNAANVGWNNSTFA
The experiment in a line: MIF tautomerase assay using pHPP as substrate. The test is classed as biochemical. The following applies: FIGS. 1-5; mean of multiple test results; read-out: pIC50 MIF tautomerase activity (converted). The method in brief: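 Cell-free keto-to-enol tautomerization of pHPP, enol product detected spectrophotometrically as borate complex. Final 3 nM MIF and 1.5 mM ketonic pHPP in DPBS/boric acid buffer with 0.025% BSA and 300 μM CHAPS, pH 6.0, room temperature; initial rates from absorbance slopes give mean pIC50.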
Regarding `O=C(O)Cn1cnc2c(-n3ncc4c(C(=O)O)cccc43)nc(N3CCN(c4ccc(O)cc4)CC3)nc21` [Example 99, 1-(9-(carboxymethyl)-2-(4-(4-hydroxyphenyl)piperazin-1-yl)-9H-purin-6-yl)-1H-indazole-4-carboxylic acid], the IC50 is at most 100 nM.
Consider `O=C(Cn1cnc2c(-n3ncc4ccccc43)nc(N3CCN(c4ccc(O)cc4)CC3)nc21)NS(=O)(=O)C1CC1` [Example 55, N-(cyclopropylsulfonyl)-2-(2-(4-(4-hydroxyphenyl)piperazin-1-yl)-6-(1H-indazol-1-yl)-9H-purin-9-yl)acetamide], for which the IC50 was at most 100 nM.

The same test, now with this note: inhibition of the MIF enzyme in vitro; mean of multiple test results; read-out: Tautomerase Inhibition pIC50 (converted).
Turning to `O=C(O)Cn1cnc2c(-n3ncc4c(C(=O)O)cccc43)nc(N3CCN(c4ccc(O)cc4)CC3)nc21` [Example 99, 1-(9-(carboxymethyl)-2-(4-(4-hydroxyphenyl)piperazin-1-yl)-9H-purin-6-yl)-1H-indazole-4-carboxylic acid], the IC50 is 10 to 97.7 nM.
On the same count and under the same terms, then `NC(=O)Cn1cnc2c(-n3ncc4ccccc43)nc(N3CCN(c4ccc(O)cc4)CC3)nc21` [Example 47, 2-(2-(4-(4-hydroxyphenyl)piperazin-1-yl)-6-(1H-indazol-1-yl)-9H-purin-9-yl)acetamide], with 100 to 977 nM; and `Nc1nc(N2CC=C(c3ccc(O)cc3)CC2)nc2c1ncn2-c1ccncc1` [Example 156, 4-(1-(6-amino-9-(pyridin-4-yl)-9H-purin-2-yl)-1,2,3,6-tetrahydropyridin-4-yl)phenol], with above 10000 nM; and `Cc1cncc(-n2cnc3c(C)nc(N4CCN(c5ccc(O)cc5)CC4)nc32)c1` [Example 38, 4-(4-(6-methyl-9-(5-methylpyridin-3-yl)-9H-purin-2-yl)piperazin-1-yl)phenol], with 1000 to 9770 nM.
For `O=C(O)Cn1cnc2c(-n3nnc4c(C(=O)O)cccc43)nc(N3CCN(c4ccc(O)cc4)CC3)nc21` [Example 122, 1-(9-(carboxymethyl)-2-(4-(4-hydroxyphenyl)piperazin-1-yl)-9H-purin-6-yl)-1H-benzo[d][1,2,3]triazole-4-carboxylic acid], the IC50 is 10 to 97.7 nM.
On the same count and under the same terms, the same measure for `CCOC(=O)c1nn(-c2nc(N3CCN(c4ccc(O)cc4)CC3)nc3c2ncn3CC(=O)O)c2ccccc12` [Example 33, 2-(6-(3-(ethoxycarbonyl)-1H-indazol-1-yl)-2-(4-(4-hydroxyphenyl)piperazin-1-yl)-9H-purin-9-yl)acetic acid]: 10 to 97.7 nM; for `N#Cc1nn(-c2nc(N3CCN(c4ccc(O)cc4)CC3)nc3c2ncn3CC(=O)O)c2ccccc12` [Example 134, 2-(2-(4-(4-hy-droxyphenyl)piperazin-1-yl)-6-(3-cyano-1H-indazol-1-yl)-9H-purin-9-yl)acetic acid]: 10 to 97.7 nM; for `Cc1nc(N2CCN(c3ccc(O)cc3)CC2)nc2c1ncn2-c1cccnc1` [Example 229, 4-(4-(6-methyl-9-(pyridin-3-yl)-9H-purin-2-yl)piperazin-1-yl)phenol]: 10 to 97.7 nM.
Still for that read-out and setting: the same measure for `Oc1ccc(C2(O)CCN(c3nc(Nc4ccncc4)c4nc[nH]c4n3)CC2)cc1` [Example 219, 4-(4-hydroxyphenyl)-1-(6-(pyridin-4-ylamino)-9H-purin-2-yl)piperidin-4-ol]: 100 to 977 nM.
Take `CCC(C(=O)O)n1cnc2c(-n3ncc4ccccc43)nc(N3CCN(c4ccc(O)cc4)CC3)nc21` (stereo not drawn) [Example 127, 2-(2-(4-(4-hydroxyphenyl)piperazin-1-yl)-6-(1H-indazol-1-yl)-9H-purin-9-yl)butanoic acid]: the IC50 was 10 to 97.7 nM.
Consider `NC(=O)Cn1cnc2c(N3CCc4ccccc43)nc(N3CCN(c4ccc(O)cc4)CC3)nc21` [Example 32, 2-(2-(4-(4-hydroxyphenyl)piperazin-1-yl)-6-(indolin-1-yl)-9H-purin-9-yl)acetamide], for which the IC50 is 1000 to 9770 nM.
The same measure, in the same setting: then `O=C(O)C(CC1CC1)n1cnc2c(-n3ncc4ccccc43)nc(N3CCN(c4ccc(O)cn4)CC3)nc21` (stereo not drawn) [Example 151, 3-cyclopropyl-2-(2-(4-(5-hydroxypyridin-2-yl)piperazin-1-yl)-6-(1H-indazol-1-yl)-9H-purin-9-yl)propanoic acid], with 10 to 97.7 nM; and `OC[C@@H](COCc1ccccc1)Nc1nc(N2CCN(c3ccc(O)cc3)CC2)nc2c1ncn2-c1ccncc1` [Example 176, (S)-4-(4-(6-((1-(benzyloxy)-3-hydroxypropan-2-yl)amino)-9-(pyridin-4-yl)-9H-purin-2-yl)piperazin-1-yl)phenol], with 100 to 977 nM; and `O=C(O)Cn1cnc2c(-n3nnc4ccccc43)nc(N3CCN(c4ccc(O)cc4)CC3)nc21` [Example 24, 2-(6-(1H-benzo[d][1,2,3]triazol-1-yl)-2-(4-(4-hydroxyphenyl)piperazin-1-yl)-9H-purin-9-yl)acetic acid], with 10 to 97.7 nM.
With `Oc1ccc(N2CCN(c3nc(N4CCNCC4)c4ncn(-c5ccncc5)c4n3)CC2)cc1` [Example 178, 4-(4-(6-(piperazin-1-yl)-9-(pyridin-4-yl)-9H-purin-2-yl)piperazin-1-yl)phenol], the IC50 is 100 to 977 nM.
The same measure, in the same setting: the same measure for `Cc1nc(N2CCN(c3ccc(O)cc3)CC2)nc2c1ncn2-c1cccnc1` [Example 59, 4-(4-(6-methyl-9-(pyridin-3-yl)-9H-purin-2-yl)piperazin-1-yl)phenol]: 100 to 977 nM; for `OCCn1cnc2c(-n3ncc4ccccc43)nc(N3CCN(c4ccc(O)cc4)CC3)nc21` [Example 3, 4-(4-(9-(2-hydroxyethyl)-6-(1H-indazol-1-yl)-9H-purin-2-yl)piperazin-1-yl)phenol]: 100 to 977 nM.
Same read-out and setting: the same measure for `O=C(O)CNc1nc(N2CCN(c3ccc(O)cc3)CC2)nc2c1ncn2-c1ccncc1` [Example 163, (2-(4-(4-hydroxyphenyl)piperazin-1-yl)-9-(pyridin-4-yl)-9H-purin-6-yl)glycine]: 10 to 97.7 nM.
Same read-out and setting: the same measure for `CC(=O)NCCn1cnc2c(-n3ncc4ccccc43)nc(N3CCN(c4ccc(O)cc4)CC3)nc21` [Example 138, N-(2-(2-(4-(4-hydroxyphenyl)piperazin-1-yl)-6-(1H-indazol-1-yl)-9H-purin-9-yl)ethyl)acetamide]: 100 to 977 nM; for `COc1cc(-n2cnc3c(N)nc(N4CCN(c5ccc(O)cc5)CC4)nc32)ccn1` [Example 82, 4-(4-(6-amino-9-(2-methoxypyridin-4-yl)-9H-purin-2-yl)piperazin-1-yl)phenol]: 100 to 977 nM.
Turning to `C=CCc1nn(-c2nc(N3CCN(c4ccc(O)cc4)CC3)nc3c2ncn3CC(=O)O)c2ccccc12` [Example 147, 2-(6-(3-allyl-1H-indazol-1-yl)-2-(4-(4-hydroxyphenyl)piperazin-1-yl)-9H-purin-9-yl)acetic acid], the IC50 was 1000 to 9770 nM.
The same measure, in the same setting: then `C[C@H]1CN(c2ccc(O)cc2)CCN1c1nc(-n2ncc3ccccc32)c2ncn(CC(=O)O)c2n1` [Example 15, (S)-2-(2-(4-(4-hydroxyphenyl)-2-methylpiperazin-1-yl)-6-(1H-indazol-1-yl)-9H-purin-9-yl)acetic acid], with 1000 to 9770 nM.
Turning to `O=C(O)Cn1cnc2c(-n3ncc4ccccc43)nc(N3CCN(c4ccc(O)cn4)CC3)nc21` [Example 21, 2-(2-(4-(5-hydroxypyridin-2-yl)piperazin-1-yl)-6-(1H-indazol-1-yl)-9H-purin-9-yl)acetic acid], the IC50 was 10 to 97.7 nM.
For the compound `O=C(O)Cn1cnc2c(N3Cc4ccccc4C3)nc(N3CCN(c4ccc(O)cc4)CC3)nc21` [Example 26, 2-(2-(4-(4-hydroxyphenyl)piperazin-1-yl)-6-(isoindolin-2-yl)-9H-purin-9-yl)acetic acid], the IC50 is 100 to 977 nM.
Still for that read-out and setting: then `O=C(Cn1cnc2c(-n3ncc4ccccc43)nc(N3CCN(c4ccc(O)cc4)CC3)nc21)NS(=O)(=O)C1CC1` [Example 55, N-(cyclopropylsulfonyl)-2-(2-(4-(4-hydroxyphenyl)piperazin-1-yl)-6-(1H-indazol-1-yl)-9H-purin-9-yl)acetamide], with 10 to 97.7 nM.
Take `Nc1nc(N2CCN(c3ccc(O)cc3)CC2)nc2c1ncn2-c1ccc(Cl)cc1` [Example 75, 4-(4-(6-amino-9-(4-chlorophenyl)-9H-purin-2-yl)piperazin-1-yl)phenol]: the IC50 is above 10000 nM.
On to `Cc1ccncc1-n1cnc2c(N)nc(N3CCN(c4ccc(O)cc4)CC3)nc21` [Example 67, 4-(4-(6-amino-9-(4-methylpyridin-3-yl)-9H-purin-2-yl)piperazin-1-yl)phenol], for which the IC50 is 1000 to 9770 nM.
Consider `O=C1CN(c2nc(N3CCN(c4ccc(O)cc4)CC3)nc3c2ncn3-c2ccncc2)CCN1` [Example 174, 4-(2-(4-(4-hydroxyphenyl)piperazin-1-yl)-9-(pyridin-4-yl)-9H-purin-6-yl)piperazin-2-one], for which the IC50 was 10 to 97.7 nM.
Same read-out and setting: then `Nc1nc(N2CCN(c3ccc(CCO)cc3)CC2)nc2c1ncn2-c1ccncc1` [Example 191, 2-(4-(4-(6-amino-9-(pyridin-4-yl)-9H-purin-2-yl)piperazin-1-yl)phenyl)ethan-1-ol], with above 10000 nM; and `Nc1nc(N2CCN(c3ccc(O)cc3)CC2)nc2c1ncn2C1CCCC(C(=O)O)C1` (mixture of isomers) [Example 189, 3-(6-amino-2-(4-(4-hydroxyphenyl)piperazin-1-yl)-9H-purin-9-yl)cyclohexane-1-carboxylic acid], with above 10000 nM; and `Oc1ccc(N2CCN(c3cc(-n4ncc5ccccc54)n4ncc(Br)c4n3)CC2)cc1` [Example 13, 4-(4-(3-bromo-7-(1H-indazol-1-yl)pyrazolo[1,5-a]pyrimidin-5-yl)piperazin-1-yl)phenol], with above 10000 nM.
In the case of `O=C(O)Cn1cnc2c(-n3ncc4ccccc43)nc(N3CCN(c4ccc5[nH]ncc5c4)CC3)nc21` [Example 140, 2-(2-(4-(1H-indazol-5-yl)piperazin-1-yl)-6-(1H-indazol-1-yl)-9H-purin-9-yl)acetic acid], the IC50 is above 10000 nM.
Take `Nc1nc(N2CCC(n3cc(C(=O)O)cn3)CC2)nc2c1ncn2-c1ccncc1` [Example 195, 1-(1-(6-amino-9-(pyridin-4-yl)-9H-purin-2-yl)piperidin-4-yl)-1H-pyrazole-4-carboxylic acid]: the IC50 was above 10000 nM.
Same read-out and setting: then `Cc1cncc(-n2cnc3c(N)nc(N4CCN(c5ccc(O)cc5)CC4)nc32)c1` [Example 68, 4-(4-(6-amino-9-(5-methylpyridin-3-yl)-9H-purin-2-yl)piperazin-1-yl)phenol], with above 10000 nM.
